Reference: patent US8129389B2, “Substituted oxindole derivatives, medicaments containing the latter and use thereof” (Abbott GmbH & Co. KG, priority 2005, dated 2012)
Like-named read-outs stand apart in the source and are kept apart here.

Target: T1, human V1b receptors (Homo sapiens, UniProt P47901)
T1 construct: expressed in transfected cells
T1 sequence (P47901 1-424): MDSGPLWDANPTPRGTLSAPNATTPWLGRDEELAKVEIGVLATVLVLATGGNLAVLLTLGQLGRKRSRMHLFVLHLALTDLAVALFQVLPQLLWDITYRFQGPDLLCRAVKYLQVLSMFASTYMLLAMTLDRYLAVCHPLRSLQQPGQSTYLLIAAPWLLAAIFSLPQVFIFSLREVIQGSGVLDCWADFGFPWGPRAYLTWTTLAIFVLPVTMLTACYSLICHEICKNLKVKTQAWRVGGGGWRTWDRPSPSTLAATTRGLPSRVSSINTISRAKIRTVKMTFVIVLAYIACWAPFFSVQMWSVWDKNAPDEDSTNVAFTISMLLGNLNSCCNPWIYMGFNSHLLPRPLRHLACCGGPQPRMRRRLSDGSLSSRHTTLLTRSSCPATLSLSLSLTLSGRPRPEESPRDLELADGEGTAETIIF
Experiment: Vasopressin V1b receptor binding assay
Description: Vasopressin V1b Receptor Binding Assay:
These DMSO solutions were diluted 1:10 with assay buffer. The substance concentration was further diluted 1:10 in the assay mixture.
The nonspecific binding was determined with 10^−6 M AVP. Determinations in triplicate were carried out.
The affinities for the human vasopressin V1b receptor were measured, and affinity constants determined, in the above assay for the inventive examples.
The affinities of the compounds (I) of the invention for the human vasopressin V1b receptor were measured in accordance with the above assays, and the affinity constants (Ki) were determined. Table 1 below details the V1b receptor affinity of selected compounds (+++ means <10 nM and ++ means 10-100 nM).

[1] = Table 1, human vasopressin V1b receptor affinity, read-out: V1b Ki
[2] = membranes from CHO-K1 cells, 3H-AVP displacement, read-out: measured Ki values, affinities for the vasopressin V1b receptor

SMILES | Ki [1] | Ki [2]
CCOc1ccccc1C1(OC(=O)N2CCN(c3cc(C#N)ccn3)CC2)C(=O)N(S(=O)(=O)c2ccc(OC)cc2OC)c2ccc(C#N)cc21 (centres unmarked) [Example 26, 1-(2,4-Dimethoxybenzenesulfonyl)-5-cyano-2-oxo-3-(2-ethoxyphenyl)-2,3-dihydro-1H-indol-3-yl 4-(4-cyanopyridin-2-yl)piperazine-1-carboxylate] | < 0.01 µM | < 0.1 µM
CCOc1ccccc1C1(OC(=O)N2CCN(c3nccs3)CC2)C(=O)N(S(=O)(=O)c2ccc(OC)cc2OC)c2ccc(C#N)cc21 (centres unmarked) [Example 30, 1-(2,4-Dimethoxybenzenesulfonyl)-5-cyano-2-oxo-3-(2-ethoxyphenyl)-2,3-dihydro-1H-indol-3-yl 4-(thiazol-2-yl)piperazine-1-carboxylate] | < 0.01 µM | < 0.1 µM
CCOc1ccccc1C1(OC(=O)N2CCN(c3nccs3)CC2)C(=O)N(S(=O)(=O)c2ccc(C#N)cc2)c2ccc(C#N)cc21 (centres unmarked) [Example 42, 1-(4-Cyanobenzenesulfonyl)-5-cyano-2-oxo-3-(2-ethoxyphenyl)-2,3-dihydro-1H-indol-3-yl 4-(thiazol-2-yl)piperazine-1-carboxylate] | 0.01 to 0.1 µM | < 0.1 µM
CCOc1ccccc1C1(NC(=O)N2CCN(c3ccc(C#N)cn3)CC2)C(=O)N(S(=O)(=O)c2ccc([N+](=O)[O-])cc2)c2ccc(C#N)cc21 (centres unmarked) [Example 43, 4-(5-Cyanopyridin-2-yl)piperazine-1-[1-(4-nitrobenzenesulfonyl)-5-cyano-2-oxo-3-(2-ethoxyphenyl)-2,3-dihydro-1H-indol-3-yl]carboxamide] | 0.01 to 0.1 µM | < 0.1 µM
CCOc1ccccc1C1(NC(=O)N2CCN(c3ccc(C#N)cn3)CC2)C(=O)N(S(=O)(=O)c2ccc(Cl)cc2)c2ccc(C#N)cc21 (centres unmarked) [Example 46, 4-(5-Cyanopyridin-2-yl)piperazine-1-[1-(4-chlorobenzenesulfonyl)-5-cyano-2-oxo-3-(2-ethoxyphenyl)-2,3-dihydro-1H-indol-3-yl]carboxamide] | 0.01 to 0.1 µM | < 0.1 µM
CCOc1ccccc1C1(NC(=O)N2CCN(c3ccc(C#N)cn3)CC2)C(=O)N(S(=O)(=O)c2ccc(C#N)cc2)c2ccc(C#N)cc21 (centres unmarked) [Example 47, 4-(5-Cyanopyridin-2-yl)piperazine-1-[1-(4-cyanobenzenesulfonyl)-5-cyano-2-oxo-3-(2-ethoxyphenyl)-2,3-dihydro-1H-indol-3-yl]carboxamide] | 0.01 to 0.1 µM | < 0.1 µM
CCOc1ccccc1C1(NC(=O)N2CCN(c3ccc(C#N)cn3)CC2)C(=O)N(S(=O)(=O)c2ccccc2)c2ccc(C#N)cc21 (centres unmarked) [Example 48, 4-(5-Cyanopyridin-2-yl)piperazine-1-[1-benzenesulfonyl-5-cyano-2-oxo-3-(2-ethoxyphenyl)-2,3-dihydro-1H-indol-3-yl]carboxamide] | 0.01 to 0.1 µM | < 0.1 µM
CCOc1ccccc1C1(NC(=O)N2CCN(c3ccc(C#N)cn3)CC2)C(=O)N(S(=O)(=O)c2ccccc2F)c2ccc(C#N)cc21 (centres unmarked) [Example 49, 4-(5-Cyanopyridin-2-yl)piperazin-1-[1-(2-fluorobenzenesulfonyl)-5-cyano-2-oxo-3-(2-ethoxyphenyl)-2,3-dihydro-1H-indol-3-yl]carboxamide] | – | < 0.1 µM
CCOc1ccccc1C1(NC(=O)N2CCN(c3ccc(C#N)cn3)CC2)C(=O)N(S(=O)(=O)c2ccc(C#N)cc2)c2ccc(C#N)cc21 (centres unmarked) [Example 50, 4-(5-Cyanopyridin-2-yl)piperazine-1-[1-(4-cyanobenzenesulfonyl)-5-cyano-2-oxo-3-(2-ethoxyphenyl)-2,3-dihydro-1H-indol-3-yl]carboxamide] | 0.01 to 0.1 µM | –

The next lines start with the values.

Ki [1] | Ki [2] | SMILES
0.01 to 0.1 µM | < 0.1 µM | CCOc1ccccc1C1(OC(=O)N2CCN(c3ncccn3)CC2)C(=O)N(S(=O)(=O)c2ccc(OC)cc2OC)c2ccc(C#N)cc21 (centres unmarked) [Example 27, 1-(2,4-Dimethoxybenzenesulfonyl)-5-cyano-2-oxo-3-(2-ethoxyphenyl)-2,3-dihydro-1H-indol-3-yl 4-(pyrimidin-2-yl)piperazin-1-carboxylate]
0.01 to 0.1 µM | < 0.1 µM | CCOc1ccccc1C1(OC(=O)N2CCN(c3cnccn3)CC2)C(=O)N(S(=O)(=O)c2ccc(OC)cc2OC)c2ccc(C#N)cc21 (centres unmarked) [Example 29, 1-(2,4-Dimethoxybenzenesulfonyl)-5-cyano-2-oxo-3-(2-ethoxyphenyl)-2,3-dihydro-1H-indol-3-yl 4-(pyrazin-2-yl)piperazine-1-carboxylate]
< 0.01 µM | < 0.1 µM | CCOc1ccccc1C1(NC(=O)N2CCN(c3nccs3)CC2)C(=O)N(S(=O)(=O)c2ccc(OC)cc2OC)c2ccc(C#N)cc21 (centres unmarked) [Example 31, 4-(Thiazol-2-yl)piperazine-1-[1-(2,4-dimethoxybenzenesulfonyl)-5-cyano-2-oxo-3-(2-ethoxyphenyl)-2,3-dihydro-1H-indol-3-yl]carboxamide]
0.01 to 0.1 µM | < 0.1 µM | CCOc1ccccc1C1(NC(=O)N2CCN(c3ncccc3C)CC2)C(=O)N(S(=O)(=O)c2ccc(OC)cc2OC)c2ccc(C#N)cc21 (centres unmarked) [Example 32, 4-(3-Methylpyridin-2-yl)piperazine-1-[1-(2,4-dimethoxybenzenesulfonyl)-5-cyano-2-oxo-3-(2-ethoxyphenyl)-2,3-dihydro-1H-indol-3-yl]carboxamide]
< 0.01 µM | < 0.1 µM | CCOc1ccccc1C1(NC(=O)N2CCN(c3ccc(C#N)cn3)CC2)C(=O)N(S(=O)(=O)c2ccc(OC)cc2OC)c2ccc(C#N)cc21 (centres unmarked) [Example 33, 4-(5-Cyanopyridin-2-yl)piperazine-1-[1-(2,4-dimethoxybenzenesulfonyl)-5-cyano-2-oxo-3-(2-ethoxyphenyl)-2,3-dihydro-1H-indol-3-yl]carboxamide]
< 0.01 µM | < 0.1 µM | CCOc1ccccc1C1(NC(=O)N2CCN(c3ncccn3)CC2)C(=O)N(S(=O)(=O)c2ccc(OC)cc2OC)c2ccc(C#N)cc21 (centres unmarked) [Example 34, 4-(Pyrimidin-2-yl)piperazine-1-[1-(2,4-dimethoxybenzenesulfonyl)-5-cyano-2-oxo-3-(2-ethoxyphenyl)-2,3-dihydro-1H-indol-3-yl]carboxamide]
0.01 to 0.1 µM | < 0.1 µM | CCOc1ccccc1C1(NC(=O)N2CCN(c3cnccn3)CC2)C(=O)N(S(=O)(=O)c2ccc(OC)cc2OC)c2ccc(C#N)cc21 (centres unmarked) [Example 35, 4-(Pyrazin-2-yl)piperazine-1-[1-(2,4-dimethoxybenzenesulfonyl)-5-cyano-2-oxo-3-(2-ethoxyphenyl)-2,3-dihydro-1H-indol-3-yl]carboxamide]
0.01 to 0.1 µM | < 0.1 µM | CCOc1ccccc1C1(NC(=O)N2CCN(c3ccc(C#N)cn3)CC2)C(=O)N(S(=O)(=O)c2ccccc2OC)c2ccc(C#N)cc21 (centres unmarked) [Example 45, 4-(5-Cyanopyridin-2-yl)piperazine-1-[1-(2-methoxybenzenesulfonyl)-5-cyano-2-oxo-3-(2-ethoxyphenyl)-2,3-dihydro-1H-indol-3-yl]carboxamide]
